In patent US10966426B2, “Herbicidal compositions comprising phenylpyrimidines” (BASF SE, priority 2016, dated 2021):

Legend:
Assay type in all cases: in vivo
[1] = test system: Apera spica-venti; experiment: greenhouse post-emergence treatment, APESV; conditions: solo, SC 400 g/l, APESV, 250 gai/ha, 20 DAT
Method: (§1) The culture containers used were plastic pots containing loamy sand with approximately 3.0% of humus as substrate. The seeds of the test plants were sown separately for each species.
(§2) For the post-emergence treatment, the test plants were grown to a plant height of from 3 to 15 cm, depending on the plant habit, and only then treated with the active compounds which had been suspended or emulsified in water. To this end, the test plants were either sown directly, and grown in the same containers, or they were first grown separately as seedlings and transplanted into the test containers a few days prior to treatment.
(§3) Depending on the species, the plants were kept at 10-25° C. and 20-35° C., respectively.
(§4) The test period extended over 2 to 4 weeks. During this time, the plants were tended and their response to the individual treatments was evaluated.
(§5) Evaluation was carried out using a scale from 0 to 100. 100 means no emergence of the plants, or complete destruction of at least the above-ground parts, and 0 means no damage or normal course of growth. A good herbicidal activity is given at values of at least 70, and very good herbicidal activity is given at values of at least 85.
(§6) The respective stated components A and B, and if appropriate, C were formulated as a 10% by weight strength emulsion concentrate and, with addition of the amount of solvent system, introduced into the spray liquor used for applying the active compound. In the examples, the solvent used was water.
(§7) In the examples below, using the method of S. R. Colby (1967) “Calculating synergistic and antagonistic responses of herbicide combinations”, Weeds 15, p. 22ff., the value E, which is expected if the activity of the individual active compounds is only additive, was calculated. E=X+Y−(X·Y/100) where X=effect in percent using herbicide A at an application rate a; • Y=effect in percent using herbicide B at application rate b; • E=expected effect (in %) of herbicide A+herbicide B at application rates a+b.

[2] = test system: Avena fatua; experiment: greenhouse post-emergence treatment, AVEFA; conditions: Avena fatua, sc, 480 h, 20 DAT, AVEFA
Method: as §1
(§8) To this end, the test plants were either sown directly, and grown in the same containers, or they were first grown separately as seedlings and transplanted into the test containers a few days prior to treatment.
as §3, §4, §5
(§9) In the examples, the solvent used was water.
(§10) In the examples below, using the method of S. R. Colby (1967) “Calculating synergistic and antagonistic responses of herbicide combinations”, Weeds 15, p. […] E=X+Y−(X·Y/100) where X=effect in percent using herbicide A at an application rate a; • Y=effect in percent using herbicide B at application rate b; • E=expected effect (in %) of herbicide A+herbicide B at application rates a+b.

[3] = test system: Avena fatua; experiment: greenhouse pre-emergence treatment, AVEFA; conditions: Avena fatua, 504 h, 21 DAT, AVEFA, pendimethalin SC 400 g/l solo 125 gai/ha
Description: as §1
(§11) For the pre-emergence treatment, the active compounds, suspended or emulsified in water, were applied directly after sowing by means of finely distributing nozzles. The containers were irrigated gently to promote germination and growth and subsequently covered with transparent plastic hoods until the plants had rooted. This cover caused uniform germination of the test plants unless this was adversely affected by the active compounds.
as §3, §4, §5, §6, §7

[4] = test system: Ambrosia elatior; experiment: greenhouse pre-emergence treatment, AMBEL; conditions: Ambrosia artemisiifolia, 504 h, 21 DAT, AMBEL
Description: as §1, §11, §3, §4, §5, §6, §7

[5] = test system: Bromus sterilis; experiment: greenhouse post-emergence treatment, BROST; conditions: Bromus sterilis, sc, 480 h, 20 DAT, BROST
Method: as §1, §8, §3, §4, §5, §9, §10

[6] = test system: Bromus sterilis; experiment: greenhouse pre-emergence treatment, BROST; conditions: Bromus sterilis, 504 h, 21 DAT, BROST
Description: as §1, §11, §3, §4, §5, §6, §7

[7] = test system: Alopecurus myosuroides; experiment: greenhouse post-emergence treatment, ALOMY; conditions: Alopecurus myosuroides, 480 h, 20 DAT, ALOMY, pendimethalin SC 400 g/l solo 125 gai/ha
Method: as §1, §8, §3, §4, §5, §9, §10

[8] = test system: Helianthus annuus; experiment: greenhouse pre-emergence treatment, HELAN; conditions: Helianthus annuus, 504 h, 21 DAT, HELAN
Description: as §1, §11, §3, §4, §5, §6, §7

[9] = test system: Setaria viridis; experiment: greenhouse post-emergence treatment, SETVI; conditions: Setaria viridis, sc, 480 h, 20 DAT, SETVI, pendimethalin SC 400 g/l solo 250 gai/ha, read-out: % activity
Method: as §1, §8, §3, §4, §5, §9, §10

[10] = test system: Polygonum convolvulus; experiment: greenhouse post-emergence treatment, POLCO; conditions: Fallopia convolvulus, sc, 480 h, 20 DAT, POLCO
Method: as §1, §2, §3, §4, §5, §6, §7

[11] = test system: Matricaria chamomilla; experiment: greenhouse post-emergence treatment, MATCH; conditions: Matricaria chamomilla, sc, 480 h, 20 DAT, MATCH
Method: as §1, §2, §3, §4, §5, §6, §7

[12] = test system: Digitaria sanguinalis; experiment: greenhouse post-emergence treatment, DIGSA; conditions: Digitaria sanguinalis, sc, 480 h, 20 DAT, DIGSA, pendimethalin SC 400 g/l solo 125 gai/ha, read-out: % activity
Method: as §1, §8, §3, §4, §5, §9, §10

[13] = test system: Lolium multiflorum; experiment: greenhouse post-emergence treatment, LOLMU; conditions: Lolium multiflorum, sc, 480 h, 20 DAT, LOLMU, read-out: % activity
Method: as §1, §8, §3, §4, §5, §9, §10

[14] = test system: Stellaria media; experiment: greenhouse post-emergence treatment, STEME; conditions: Stellaria media, sc, 480 h, 20 DAT, STEME, pendimethalin SC 400 g/l solo 500 gai/ha
Method: as §1, §2, §3, §4, §5, §6, §7

[15] = test system: Brachiaria decumbens; experiment: greenhouse pre-emergence treatment, BRADC; conditions: Urochloa decumbens, 504 h, 21 DAT, BRADC
Description: as §1, §11, §3, §4, §5, §6, §7

[16] = pendimethalin SC 400 g/l solo 125 gai/ha, read-out: % activity
[17] = pendimethalin SC 400 g/l solo 250 gai/ha
[18] = pendimethalin SC 400 g/l solo 500 gai/ha
[19] = pendimethalin SC 400 g/l solo 1000 gai/ha
[20] = pendimethalin SC 400 g/l solo 125 gai/ha

CCC(CC)Nc1c([N+](=O)[O-])cc(C)c(C)c1[N+](=O)[O-] [pendimethalin]
0%: % activity [1] | inhibition at 125 g/ha [2, 16] | inhibition at 250 g/ha [2, 17] | inhibition at 500 g/ha [2, 18] | inhibition at 1000 g/ha [2, 19] | inhibition at 125 g/ha [3] | percent weed control (herbicidal activity, 0-100 scale) at 250 g/ha [4, 17] | percent weed control (herbicidal activity, 0-100 scale) at 1000 g/ha [4, 19] | inhibition at 125 g/ha [5, 20] | inhibition at 250 g/ha [5, 17] | inhibition at 500 g/ha [5, 18] | inhibition at 1000 g/ha [5, 19] | inhibition at 250 g/ha ([6]; pendimethalin SC 400 g/l solo 250 gai/ha, read-out: % activity) | inhibition at 500 g/ha [6, 18] | inhibition at 125 g/ha [8, 16] | inhibition at 250 g/ha [8, 17] | inhibition at 500 g/ha [11, 18] | inhibition at 1000 g/ha [11, 19] | % herbicidal activity (weed control, 0-100 scale) at 250 g/ha [15, 17] | % herbicidal activity (weed control, 0-100 scale) at 500 g/ha [15, 18] | % herbicidal activity (weed control, 0-100 scale) at 1000 g/ha [15, 19]
40%: inhibition at 125 g/ha [10, 20]
50%: inhibition at 250 g/ha [9]
20%: inhibition at 125 g/ha [7] | inhibition at 250 g/ha [13, 17]
10%: inhibition at 1000 g/ha [6, 19] | inhibition at 100 g/ha ([8]; pendimethalin SC 400 g/l solo 100 gai/ha) | inhibition at 500 g/ha [8, 18] | inhibition at 125 g/ha [13, 20]
70%: inhibition at 500 g/ha [14]
60%: inhibition at 500 g/ha [10, 18]
45%: inhibition at 125 g/ha [12]
